Data set [1] relates to Mus musculus. Kind of data set: Anticonvulsant activity against maximal electroshock-induced seizures in mouse at 30 mg/kg, ip after 4 hrs. It counts as functional, organism-based. Details: dose 30 mg/kg. For orientation: In the maximal electroshock model the usual endpoint is tonic extension of the hind limbs.
Data set [2] relates to Mus musculus. Nature of the data set: Anticonvulsant activity against scMet-induced seizures in mouse at 100 mg/kg, ip after 0.5 hrs. It counts as functional, organism-based. On the set-up: dose 100 mg/kg.
Data set [3] deals with Mus musculus. Kind of data set: Anticonvulsant activity against scMet-induced seizures in mouse at 30 mg/kg, ip after 0.5 hrs. Details: dose 30 mg/kg. The class given is functional, organism-based.
The test system of data set [4] is Mus musculus. Nature of the data set: Neurotoxicity in mouse at 100 mg/kg, ip after 4 hrs by rotarod test. It counts as toxicity, organism-based. To be noted: in vivo. On the set-up: dose 100 mg/kg, route intraperitoneal. In general terms: In the rotarod test animals must keep their balance on a rotating rod.
The subject of data set [5] is Mus musculus. Nature of the data set: Anticonvulsant activity against maximal electroshock-induced seizures in mouse at 100 mg/kg, ip after 0.5 hrs. It counts as functional, organism-based. Details: dose 100 mg/kg.
Data set [6] deals with Mus musculus. Nature of the data set: Anticonvulsant activity against scMet-induced seizures in mouse at 100 mg/kg, ip after 4 hrs. On the set-up: dose 100 mg/kg. It counts as functional, organism-based.
Data set [7] has as its system Mus musculus. Nature of the data set: Anticonvulsant activity against scMet-induced seizures in mouse at 30 mg/kg, ip after 4 hrs. The class given is functional, organism-based. Details: dose 30 mg/kg.
Data set [8] deals with Mus musculus. Nature of the data set: Anticonvulsant activity against maximal electroshock-induced seizures in mouse at 30 mg/kg, ip after 0.5 hrs. The class given is functional, organism-based. On the set-up: dose 30 mg/kg.
Data set [9] relates to Mus musculus. Kind of data set: Anticonvulsant activity against maximal electroshock-induced seizures in mouse at 300 mg/kg, ip after 4 hrs. The class given is functional, organism-based. On the set-up: dose 300 mg/kg.
The test system of data set [10] is Mus musculus. Nature of the data set: Neurotoxicity in mouse at 300 mg/kg, ip after 4 hrs by rotarod test. It counts as toxicity, organism-based. On the set-up: dose 300 mg/kg, route intraperitoneal. To be noted: in vivo.
Data set [11] has as its system Mus musculus. Kind of data set: Neurotoxicity in mouse at 300 mg/kg, ip after 0.5 hrs by rotarod test. It counts as toxicity, organism-based. On the set-up: dose 300 mg/kg, route intraperitoneal. Particulars: in vivo.
The test system of data set [12] is Mus musculus. Kind of data set: Anticonvulsant activity against scMet-induced seizures in mouse at 300 mg/kg, ip after 4 hrs. The class given is functional, organism-based. On the set-up: dose 300 mg/kg.
Data set [13] has as its system Mus musculus. Kind of data set: Anticonvulsant activity against maximal electroshock-induced seizures in mouse at 100 mg/kg, ip after 4 hrs. It counts as functional, organism-based. On the set-up: dose 100 mg/kg.
In data set [14] the test system is Mus musculus. Kind of data set: Neurotoxicity in mouse at 30 mg/kg, ip after 0.5 hrs by rotarod test. It counts as toxicity, organism-based. Details: dose 30 mg/kg, route intraperitoneal. To be noted: in vivo.
The subject of data set [15] is Mus musculus. Nature of the data set: Anticonvulsant activity against scMet-induced seizures in mouse at 300 mg/kg, ip after 0.5 hrs. The class given is functional, organism-based. On the set-up: dose 300 mg/kg.
Data set [16] deals with Mus musculus. Kind of data set: Neurotoxicity in mouse at 100 mg/kg, ip after 0.5 hrs by rotarod test. It counts as toxicity, organism-based. On the set-up: dose 100 mg/kg, route intraperitoneal. Particulars: in vivo.
For data set [17], the system named is Mus musculus. Nature of the data set: Neurotoxicity in mouse at 30 mg/kg, ip after 4 hrs by rotarod test. The class given is toxicity, organism-based. On the set-up: dose 30 mg/kg, route intraperitoneal. To be noted: in vivo.
The subject of data set [18] is Mus musculus. Nature of the data set: Anticonvulsant activity against maximal electroshock-induced seizures in mouse at 300 mg/kg, ip after 0.5 hrs. It counts as functional, organism-based. On the set-up: dose 300 mg/kg.

Activity calls are given as the source filed them. The rule behind the calls is not given here.

Turning to `O=C(NCCCCO)c1ccc2oc3ccccc3c(=O)c2c1`, the result with Mus musculus [1], with Mus musculus [2], with Mus musculus [3], in the data set with Mus musculus [5], in the data set on Mus musculus [6] and in the data set on Mus musculus [7] was inactive. For the same compound, the result in the data set with Mus musculus [8], with Mus musculus [9], in the data set on Mus musculus [12], with Mus musculus [13], in the data set with Mus musculus [15] and in the data set on Mus musculus [18] was inactive. In addition, the Neurotoxicity entry in the data set with Mus musculus [4], with Mus musculus [10], with Mus musculus [11], with Mus musculus [14], in the data set on Mus musculus [16] and in the data set with Mus musculus [17] was “Not Active” each time.
As for `O=C(N[C@@H]1CCCC[C@H]1O)c1ccc2oc3ccccc3c(=O)c2c1` (racemic), the result in the data set with Mus musculus [1], in the data set with Mus musculus [2], in the data set on Mus musculus [3], in the data set with Mus musculus [5], in the data set with Mus musculus [6] and in the data set on Mus musculus [7] was inactive. Further, the result with Mus musculus [8], with Mus musculus [9], with Mus musculus [12], with Mus musculus [15] and with Mus musculus [18] was inactive. The Neurotoxicity entry in the data set with Mus musculus [4], in the data set on Mus musculus [10], with Mus musculus [14], in the data set on Mus musculus [16] and with Mus musculus [17] was “Not Active” each time.
Take `CC[C@H](CO)NCc1ccc2oc3cc(Cl)ccc3c(=O)c2c1`: the result in the data set on Mus musculus [1], in the data set with Mus musculus [2], in the data set on Mus musculus [3], in the data set with Mus musculus [6], in the data set with Mus musculus [7] and in the data set with Mus musculus [8] was inactive. Further, the outcome with Mus musculus [12], in the data set on Mus musculus [13] and in the data set on Mus musculus [15] was inactive. Also, the result in the data set on Mus musculus [9] and in the data set on Mus musculus [18] was Active. In addition, the figures for the Neurotoxicity entry in the data set on Mus musculus [11], in the data set with Mus musculus [14] and with Mus musculus [17] were “Neurotoxic”, “Not Active” and “Not Active”, respectively.
`C[C@@H](CO)N(C)Cc1ccc2oc3cc(Cl)ccc3c(=O)c2c1`: the outcome in the data set on Mus musculus [1], with Mus musculus [2], in the data set with Mus musculus [3], in the data set on Mus musculus [6], with Mus musculus [7] and with Mus musculus [8] was inactive. The outcome in the data set on Mus musculus [12] and with Mus musculus [15] was inactive. Also, the Neurotoxicity entry in the data set with Mus musculus [4] was “Not Active”; in the data set with Mus musculus [10] it was “Neurotoxic”; with Mus musculus [11], “Neurotoxic”. The result in the data set on Mus musculus [5], with Mus musculus [9] and in the data set with Mus musculus [18] was Active.
In the case of `C[C@H](O)CNCc1ccc2oc3cc(Cl)ccc3c(=O)c2c1`, the result in the data set with Mus musculus [1], with Mus musculus [5], in the data set with Mus musculus [13] and with Mus musculus [18] was Active. The result in the data set with Mus musculus [2], with Mus musculus [3], in the data set with Mus musculus [6], with Mus musculus [7], in the data set with Mus musculus [8] and in the data set on Mus musculus [9] was inactive. Besides, the result in the data set on Mus musculus [12] and in the data set with Mus musculus [15] was inactive. Moreover, the Neurotoxicity entry in the data set on Mus musculus [4], in the data set with Mus musculus [14] and in the data set on Mus musculus [17] was “Not Active” in each case.
With `CN(CCO)Cc1ccc2oc3cc(Cl)ccc3c(=O)c2c1`, the result in the data set on Mus musculus [1], with Mus musculus [2], with Mus musculus [3], with Mus musculus [6], in the data set on Mus musculus [7] and in the data set on Mus musculus [8] was inactive. The outcome with Mus musculus [12], in the data set on Mus musculus [13], in the data set with Mus musculus [15] and with Mus musculus [18] was inactive. In addition, the Neurotoxicity result in the data set on Mus musculus [4] is listed as “Not Active”; with Mus musculus [10], “Neurotoxic”; in the data set on Mus musculus [11], “Neurotoxic”; in the data set with Mus musculus [14], “Not Active”; in the data set with Mus musculus [17] it was “Not Active”.
With `O=c1c2ccc(Cl)cc2oc2ccc(CNCCCCCO)cc12`, the outcome in the data set with Mus musculus [1], in the data set with Mus musculus [2], in the data set with Mus musculus [3], in the data set with Mus musculus [6], in the data set on Mus musculus [7] and in the data set on Mus musculus [8] was inactive. Also, the outcome in the data set with Mus musculus [12], in the data set on Mus musculus [13] and with Mus musculus [15] was inactive. Moreover, the Neurotoxicity entry in the data set with Mus musculus [4] is “Not Active”; with Mus musculus [11] it was “Neurotoxic”; with Mus musculus [17] it was “Not Active”. In addition, the outcome in the data set with Mus musculus [9] and with Mus musculus [18] was Active.
`O=c1c2ccc(Cl)cc2oc2ccc(CNCCO)cc12`: the result in the data set on Mus musculus [1], with Mus musculus [2], with Mus musculus [3], with Mus musculus [6], in the data set with Mus musculus [7] and in the data set on Mus musculus [8] was inactive. Further, the outcome with Mus musculus [12], with Mus musculus [13] and in the data set on Mus musculus [15] was inactive. Further, the Neurotoxicity result in the data set on Mus musculus [4], in the data set on Mus musculus [10] and with Mus musculus [17] was “Not Active” in each case. The outcome in the data set with Mus musculus [9] and in the data set with Mus musculus [18] was Active.
Take `C[C@@H](O)CNCc1ccc2oc3cc(Cl)ccc3c(=O)c2c1`: the result with Mus musculus [1], with Mus musculus [5], with Mus musculus [13] and with Mus musculus [18] was Active. In addition, the outcome with Mus musculus [2], in the data set on Mus musculus [3], in the data set on Mus musculus [6], in the data set with Mus musculus [7], with Mus musculus [8] and in the data set on Mus musculus [9] was inactive. In addition, the result in the data set with Mus musculus [12] and with Mus musculus [15] was inactive. Further, the Neurotoxicity entry in the data set with Mus musculus [10] and in the data set on Mus musculus [11] was “Neurotoxic” each time.
On to `CC(CO)NC(=O)c1ccc2oc3cc(Cl)ccc3c(=O)c2c1` (racemic), for which the result with Mus musculus [1], with Mus musculus [2], with Mus musculus [3], with Mus musculus [5], in the data set with Mus musculus [6] and in the data set with Mus musculus [7] was inactive. Further, the result in the data set with Mus musculus [8], in the data set with Mus musculus [9], in the data set on Mus musculus [12], in the data set with Mus musculus [13], in the data set with Mus musculus [15] and in the data set on Mus musculus [18] was inactive. Further, the Neurotoxicity entry with Mus musculus [4], in the data set on Mus musculus [10], in the data set with Mus musculus [11], with Mus musculus [16] and in the data set on Mus musculus [17] was “Not Active” in each case.
For `CC(CCl)N(C)Cc1ccc2oc3cc(Cl)ccc3c(=O)c2c1.Cl` (stereo unspecified), the result in the data set with Mus musculus [1], in the data set on Mus musculus [2], in the data set with Mus musculus [3], with Mus musculus [6], in the data set with Mus musculus [7] and in the data set on Mus musculus [8] was inactive. The outcome in the data set with Mus musculus [9], with Mus musculus [12], with Mus musculus [13] and with Mus musculus [15] was inactive. Besides, the Neurotoxicity result in the data set on Mus musculus [10] is recorded as “Neurotoxic”; with Mus musculus [11] it was “Neurotoxic”; in the data set with Mus musculus [14], “Not Active”; with Mus musculus [17] it was “Not Active”. For the same compound, in the data set with Mus musculus [18], the outcome was Active.

The record behind these values is ChEMBL document CHEMBL1155915, “Anticonvulsant activity of some xanthone derivatives” (Bioorg Med Chem, 2008).
